Data taken from patent US9981972B2, “N-hydroxy bicyclic hydantoin carbamates as tools for identification of serine hydrolase targets” (ABIDE THERAPEUTICS, INC., priority 2014, dated 2018).
Entries after “also recorded” stand apart in the source; their conditions may differ.

Experiments:
Type in all cases: biochemical
ABHD4 = target: T1, ABHD4 (Homo sapiens, UniProt Q8TB40); assay: Gel-based competitive ABPP, recombinant enzyme in transfected HEK293T cell lysates; set-up: myc-his; expressed in transfected cells; host or cells: HEK293T, transient transfection, pcDNA3.1/myc-his; lysate used in vitro; conditions: recombinant, combined HEK293T lysates, gel-based ABPP
T1 sequence (Q8TB40 1-342): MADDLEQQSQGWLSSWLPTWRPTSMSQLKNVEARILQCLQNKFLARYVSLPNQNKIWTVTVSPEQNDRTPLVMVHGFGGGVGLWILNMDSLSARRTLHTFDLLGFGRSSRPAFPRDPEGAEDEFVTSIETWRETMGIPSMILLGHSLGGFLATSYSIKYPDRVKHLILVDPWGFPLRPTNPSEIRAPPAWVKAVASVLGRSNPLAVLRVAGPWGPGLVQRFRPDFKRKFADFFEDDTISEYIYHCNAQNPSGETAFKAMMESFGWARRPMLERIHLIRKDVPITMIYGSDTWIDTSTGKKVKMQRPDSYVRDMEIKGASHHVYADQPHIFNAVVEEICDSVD
Method: HEK293T cells were seeded at 2×10^5 per well on 6 well plates and grown for 48 h. They were then transfected with mABHD3 (pCMV-Sport6), hABHD4 (pcDNA3.1/myc-his), hPPT1 (pCMV6-XL5), or hPPT1 S115A (pCMV6-XL5), by incubating 0.5 μg of DNA with 3 μL of PEI MAX (1 mg/mL, Polysciences, Inc) in serum-free DMEM for 30 min, then adding them to cells. After 48 h cells were either treated with compound in situ, as described above, or harvested for in vitro studies. The […] PPT1 mutation was introduced using QuikChange II Site Directed Mutagenesis Kit (Agilent) with the following primers: […]
Human ABHD3 and ABHD4 were recombinantly expressed by transient transfection in HEK293T cells, and the cell lysates were combined to provide a convenient assay for monitor inhibition of both enzymes by gel-based ABPP (see FIG. 8A). […]

LYPLA2 = target: T2, LYPLA2 (Mus musculus, UniProt Q9WTL7); assay: Gel-based competitive ABPP in vitro, mouse brain membrane proteome; conditions: for inhibition at 0.1 µM: 0.1 μM compound, read-out: LYPLA2 % INH 0.1 μM; for inhibition at 0.1 µM / inhibition at 1 µM / inhibition at 10 µM / inhibition at 100 µM: 30 min, one replicate; for inhibition at 1 µM: 1 μM compound, read-out: LYPLA2 % INH 1 μM; for inhibition at 10 µM: 10 μM compound, read-out: LYPLA2 % INH 10 μM; for inhibition at 100 µM: 100 μM compound, read-out: LYPLA2 % INH 100 μM; for LYPLA2 in vitro enzyme activity, % @ 20 μM: mouse brain (mem) proteome
T2 construct: a complex proteome endogenously expressing LYPLA1/2 was incubated with test compound; from tissue; host or cells: mouse brain, membrane fraction
Method: (§1) Assay Overview: The purpose of this assay was to determine whether test compounds can inhibit LYPLA1 and LYPLA2 in a complex proteomic lysate and to assess anti-target inhibition using a competitive activity-based proteomic profiling (ABPP) assay. In this assay, a complex proteome endogenously expressing LYPLA1/2 was incubated with test compound followed by reaction with a rhodamine-conjugated fluorophosphonate (FP-Rh) serine-hydrolase specific activity-based probe. The reaction products were separated by SDS-PAGE and visualized in-gel using a flatbed fluorescence scanner. The percentage activity remaining was determined by measuring the integrated optical density of the bands. […] Percent inhibition was calculated relative to a DMSO (no compound) control.
(§2) Protocol Summary: Mouse brain membrane proteome (50 μL reaction volume, 1 mg/mL in DPBS) was treated with 0.1-100 μM test compound (1 μL of a 50× stock in DMSO) for 30 minutes at 37° C. FP-Rh (1 μL of 50× stock in DMSO, Thermo #88318) was added to a final concentration of 2 μM. The reactions were incubated for 30 minutes at 25° C., quenched with 16 μL 4×SDS-PAGE loading buffer (reducing), separated by SDS-PAGE and visualized by in-gel fluorescent scanning. The percentage activity remaining was determined by measuring the integrated optical density of the bands relative to a DMSO-only (no compound) control. Assay Cutoff: Compounds with ≥50% inhibition of targets at 1 μM test compound concentration were considered active.
(§3) N-Hydroxy bicyclic hydantoin carbamates (Compounds 1-20) listed in Table 1 were subjected to gel-based competitive ABPP screening to assess SH reactivity against more than 20 FP-sensitive SHs visible by 1D SDS-PAGE separation and fluorescent detection in the mouse brain proteome (see FIG. 1). […] Compound treatment ([…], 30 minutes) was followed by labeling with SH-specific ABPP probe FP-Rh (2 μM, 30 minutes), 1D-SDS-PAGE, and in-gel fluorescent visualization of FP-labeled proteins. Assignment of LYPLA1/2 bands was based on correlation of molecular weights, expression and inhibition profiles with LC-MS/MS data and recombinant enzyme expression. Proteins were listed as anti-targets if at least 50% inhibition was observed as quantified relative to the DMSO control.
(§4) Compounds 1-20 were subjected to gel-based competitive ABPP profiling to assess potency and selectivity against several dozen FP-sensitive SHs in the mouse brain membrane proteome, which endogenously expresses LYPLA1 and LYPLA2, as well a diversity of potential SH anti-targets. Compounds were tested at 100 μM, 10 μM, 1 μM, and/or 0.1 μM compound concentration.

LYPLA1 = target: T3, LYPLA1 (Mus musculus, UniProt P97823); assay: as above; conditions: for inhibition at 0.1 µM: 0.1 μM compound, read-out: LYPLA1 % INH 0.1 μM; for inhibition at 0.1 µM / inhibition at 1 µM / inhibition at 10 µM / inhibition at 100 µM: 30 min, one replicate; for inhibition at 1 µM: 1 μM compound, read-out: LYPLA1 % INH 1 μM; for inhibition at 10 µM: 10 μM compound, read-out: LYPLA1 % INH 10 μM; for inhibition at 100 µM: 100 μM compound, read-out: LYPLA1 % INH 100 μM; for LYPLA1 in vitro enzyme activity, % @ 20 μM: mouse brain (mem) proteome
T3 construct: a complex proteome endogenously expressing LYPLA1/2 was incubated with test compound; from tissue; host or cells: mouse brain, membrane fraction
Method: as §1, §2, §3, §4

[1] = system: FP-sensitive SHs in the mouse brain membrane proteome; assay: Gel-based competitive ABPP in vitro, mouse brain membrane proteome, anti-targets; conditions: for Anti-target(s) 0.1 μM: SHs with at least 50% inhibition at 0.1 μM compound; for Anti-target(s) 1 μM: SHs with at least 50% inhibition at 1 μM compound; for Anti-target(s) 10 μM: SHs with at least 50% inhibition at 10 μM compound; for Anti-target(s) 100 μM: SHs with at least 50% inhibition at 100 μM compound
Method: as §1, §2, §3, §4

ABHD6 = target: T4, ABHD6 (Mus musculus, UniProt Q8R2Y0); assay: Gel-based competitive ABPP in vitro, mouse brain membrane proteome; conditions: for ABHD6 in vitro enzyme activity, % @ 20 μM: mouse brain (mem) proteome
T4 construct: from tissue; host or cells: mouse brain, membrane fraction
T4 sequence (Q8R2Y0 1-336): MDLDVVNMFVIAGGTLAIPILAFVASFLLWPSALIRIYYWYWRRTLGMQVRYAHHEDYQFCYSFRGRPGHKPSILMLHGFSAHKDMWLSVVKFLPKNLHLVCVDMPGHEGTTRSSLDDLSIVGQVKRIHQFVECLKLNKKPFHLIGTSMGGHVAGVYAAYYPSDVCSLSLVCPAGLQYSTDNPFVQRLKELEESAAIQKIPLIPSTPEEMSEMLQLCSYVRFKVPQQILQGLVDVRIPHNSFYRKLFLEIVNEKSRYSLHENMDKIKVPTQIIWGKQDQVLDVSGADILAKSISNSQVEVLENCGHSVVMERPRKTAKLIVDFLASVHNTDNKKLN
Method: as §1, §2
Assay Overview: The purpose of this assay was to determine IC50 values of powder samples of test compounds for enzyme of interest activity, and anti-targets in a complex proteomic lysate using a gel-based competitive ABPP assay. In this assay, a complex proteome was incubated with test compound followed by reaction with FP-Rh and SDS-PAGE analysis as described above.
Protocol Summary: Soluble HeLa cell proteome (50 μL reaction volume, 1 mg/mL in DPBS) or mouse brain membrane proteome (50 μL reaction volume, 1 mg/mL in DPBS) was treated with varying concentrations of test compound (1 μL of a 50× stock in DMSO) for 30 minutes at 37° C. FP-Rh (1 μL of 50× stock in DMSO) was added to a final concentration of 2 μM. The reaction was incubated for 30 minutes at 25° C., quenched with 16 μL 4×SDS-PAGE loading buffer (reducing), separated by SDS-PAGE and visualized by in-gel fluorescent scanning. The percentage activity remaining was determined by measuring the integrated optical density of the enzymes of interest, and anti-target bands relative to a DMSO-only (no compound) control. IC50 values were determined from dose-response curves from three replicates at each inhibitor concentration: 1, 10, 100, 1000, 10000 nM and 0.01, 0.1, 1, 10, 100, 1000, 10000, 50000, and 100000 nM.

T3 sequence (P97823 whole entry): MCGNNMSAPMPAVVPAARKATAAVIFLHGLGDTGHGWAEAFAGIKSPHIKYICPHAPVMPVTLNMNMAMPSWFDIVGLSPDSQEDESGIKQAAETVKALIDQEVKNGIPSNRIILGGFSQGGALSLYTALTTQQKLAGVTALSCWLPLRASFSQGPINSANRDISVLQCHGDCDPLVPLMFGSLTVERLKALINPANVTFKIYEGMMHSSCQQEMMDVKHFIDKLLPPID
T2 sequence (Q9WTL7 whole entry): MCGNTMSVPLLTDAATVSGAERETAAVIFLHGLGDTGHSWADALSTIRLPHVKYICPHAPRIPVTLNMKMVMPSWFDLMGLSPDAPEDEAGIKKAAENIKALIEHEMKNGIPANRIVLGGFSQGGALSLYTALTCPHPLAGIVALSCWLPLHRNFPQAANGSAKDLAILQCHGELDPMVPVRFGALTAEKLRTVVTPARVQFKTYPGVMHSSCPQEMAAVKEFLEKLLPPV

Row | SMILES | inhibition at 0.1 µM (LYPLA2) | inhibition at 1 µM (LYPLA2) | inhibition at 10 µM (LYPLA2) | inhibition at 100 µM (LYPLA2) | inhibition at 0.1 µM (LYPLA1) | inhibition at 1 µM (LYPLA1) | inhibition at 10 µM (LYPLA1) | inhibition at 100 µM (LYPLA1) | ABHD6 in vitro enzyme activity, % @ 20 μM (ABHD6) | LYPLA2 in vitro enzyme activity, % @ 20 μM (LYPLA2) | LYPLA1 in vitro enzyme activity, % @ 20 μM (LYPLA1) | potency and selectivity for ABHD6, concentration-dependent profiling (ABHD6; mouse brain membrane SHs, FIG. 7B) | preference ABHD4 over ABHD3 (ABHD4) | Anti-target(s) 0.1 μM [1] | Anti-target(s) 1 μM [1] | Anti-target(s) 10 μM [1] | Anti-target(s) 100 μM [1]
1 | O=C(ON1C(=O)C2CN(Cc3ccc(Br)cc3)CCN2C1=O)N1CCC(CCc2ccc(Cl)cc2)CC1 (centres unmarked) [Compound 13, 7-(4-bromobenzyl)-1,3-dioxohexahydroimidazo[1,5-a]pyrazin-2(3H)-yl 4-(4-chlorophenethyl)piperidine-1-carboxylate] | 0% | 10% | 75% | 90% | 0% | 10% | 75% | 90% |  |  |  |  | preferentially inhibited ABHD4 over ABHD3 | ABHD6 | FAAH,; also recorded: ABHD4,; also recorded: ABHD6 | FAAH,; also recorded: ABHD4,; also recorded: ABHD6 | FAAH,; also recorded: ABHD4,; also recorded: MAGL,; also recorded: ABHD6
2 | COc1ccc(N2CCN(C(=O)ON3C(=O)C4CN(C(=O)OC(C)(C)C)CCN4C3=O)CC2)cc1 (centres unmarked) [Compound 21, tert-butyl 2-((4-(4-methoxyphenyl)piperazine-1-carbonyl)oxy)-1,3-dioxohexahydroimidazo[1,5-a]pyrazine-7(1H)-carboxylate] |  |  |  |  |  |  |  |  | 100% @ | 0% @ | 0% @ |  |  |  |  |  | 
3 | CC(C)(C)OC(=O)N1CCN2C(=O)N(OC(=O)N3CCN(C(c4ccc(Cl)cc4)c4ccc(Cl)cc4)CC3)C(=O)C2C1 (centres unmarked) [Compound 18, tert-butyl 2-(4-(bis(4-chlorophenyl)methyl)piperazine-1-carbonyloxy)-1,3-dioxohexahydroimidazo[1,5-a]pyrazine-7(1H)-carboxylate] | 0% | 10% | 50% | 60% | 0% | 10% | 50% | 60% |  |  |  |  |  | ABHD6 | ABHD6 | ABHD6 | ABHD6
4 | Cc1ccc(C(=O)N2CCN3C(=O)N(OC(=O)N4CCC(CCc5ccc(Cl)cc5)CC4)C(=O)C3C2)cc1 (centres unmarked) [Compound 8, 7-(4-methylbenzoyl)-1,3-dioxohexahydroimidazo[1,5-a]pyrazin-2(3H)-yl 4-(4-chlorophenethyl)piperidine-1-carboxylate] |  | 75% | 100% | 100% |  | 75% | 100% | 100% |  |  |  |  |  |  | ABHD6 | FAAH,; also recorded: ABHD12,; also recorded: ABHD6 | FAAH,; also recorded: ABHD12,; also recorded: MAGL,; also recorded: ABHD6
5 | CC(C)(C)OC(=O)N1CCN2C(=O)N(OC(=O)N3CCCCC3)C(=O)C2C1 (centres unmarked) [Compound 14, tert-butyl 1,3-dioxo-2-(piperidine-1-carbonyloxy)hexahydroimidazo[1,5-a]pyrazine-7(1H)-carboxylate] | 0% | 0% | 0% | 25% | 0% | 0% | 0% | 25% |  |  |  |  |  | ABHD6 | ABHD6 | ABHD6 | APEH,; also recorded: ABHD6

More lines, main results first:

Row | inhibition at 0.1 µM (LYPLA2) | inhibition at 1 µM (LYPLA2) | inhibition at 10 µM (LYPLA2) | inhibition at 100 µM (LYPLA2) | inhibition at 0.1 µM (LYPLA1) | inhibition at 1 µM (LYPLA1) | inhibition at 10 µM (LYPLA1) | inhibition at 100 µM (LYPLA1) | ABHD6 in vitro enzyme activity, % @ 20 μM (ABHD6) | LYPLA2 in vitro enzyme activity, % @ 20 μM (LYPLA2) | LYPLA1 in vitro enzyme activity, % @ 20 μM (LYPLA1) | potency and selectivity for ABHD6, concentration-dependent profiling (ABHD6; mouse brain membrane SHs, FIG. 7B) | SMILES | preference ABHD4 over ABHD3 (ABHD4) | Anti-target(s) 0.1 μM [1] | Anti-target(s) 1 μM [1] | Anti-target(s) 10 μM [1] | Anti-target(s) 100 μM [1]
6 |  |  |  |  |  |  |  |  |  |  |  | good potency and selectivity | COc1ccc(N2CCN(C(=O)ON3C(=O)NC(C(C)C)C3=O)CC2)cc1 (centres unmarked) [MJN193, 4-isopropyl-2,5-dioxoimidazolidin-1-yl 4-(4-methoxyphenyl)piperazine-1-carboxylate] |  |  |  |  | 
7 |  |  |  |  |  |  |  |  | 100% @ | 0% @ | 0% @ |  | COc1ccc(N2CCN(C(=O)ON3C(=O)C4CN(C)CCN4C3=O)CC2)cc1 (centres unmarked) [Compound 23, 7-methyl-1,3-dioxohexahydroimidazo[1,5-a]pyrazin-2(3H)-yl 4-(4-methoxyphenyl)piperazine-1-carboxylate] |  |  |  |  | 
